The values that follow come from US20110224210A1, “NOVEL BIS-AMIDES AS ANTI-MALARIAL AGENTS” (priority 2008, published 2011).

This assay relates to P. falciparum K1 (strain resistant to chloroquine and pyrimethamine), erythrocytic stages. The assay can be described thus: Plasmodium falciparum in vitro assay, [3H] hypoxanthine incorporation. The class given is cell-based. Particulars: Plasmodium falciparum, K1, P. falciparum strain K1; [3H] hypoxanthine incorporation; read-out: IC50 (nM) on K1. Put shortly: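 Chloroquine/pyrimethamine-resistant K1 erythrocytic cultures (2.5% haematocrit, 0.3% parasitaemia, hypoxanthine-free RPMI with Albumax) exposed to seven doubling dilutions at 37 °C under low O2.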
In general, IC50 refers to the concentration at which inhibition is half-maximal. Regarding `CN(CCN(C)C(=O)[C@H](Cc1ccccc1)N(Cc1ccc(N2CCOCC2)cc1)C(=O)C=Cc1ccc(C(F)(F)F)cc1)Cc1ccc2c(c1)OCCN2C` [Example 263, (S)-N-[1-(Methyl-{2-[methyl-(4-methyl-3,4-dihydro-2H-benzo[1,4]oxazin-7-ylmethyl)-amino]-ethyl}-carbamoyl)-2-phenyl-ethyl]-N-(4-morpholin-4-yl-benzyl)-3-(4-trifluoromethyl-phenyl)-acrylamide], the IC50 amounted to 72 nM.
As for `Cc1nc(C)c(C=CC(=O)N(Cc2ccc(-c3ccncc3)cc2)[C@@H](Cc2ccccc2)C(=O)N2CCC(N(C)C)CC2)s1` [Example 22, (S)-N-[1-Benzyl-2-(4-dimethylamino-piperidin-1-yl)-2-oxo-ethyl]-3-(2,4-dimethyl-thiazol-5-yl)-N-(4-pyridin-4-yl-benzyl)-acrylamide], the IC50 is 60 nM.
`CN(C)C1CCN(C(=O)[C@H](Cc2ccccc2)N(Cc2ccc(-c3cncnc3)cc2)C(=O)C=Cc2ccc(C(F)(F)F)cn2)CC1` [Example 42, (S)-N-[1-Benzyl-2-(4-dimethylamino-piperidin-1-yl)-2-oxo-ethyl]-N-(4-pyrimidin-5-yl-benzyl)-3-(5-trifluoromethyl-pyridin-2-yl)-acrylamide]: the IC50 is 104 nM.
The result for `O=C(NC1CN2CCC1CC2)[C@H](Cc1ccccc1)N(Cc1ccc(-c2ccccn2)cc1)C(=O)C=Cc1ccc(C(F)(F)F)cc1` (mixture of isomers) [Example 152] reads 242 nM.
The result for `COCCN(C)C(=O)C(CN1C(=O)C(=O)c2ccccc21)N(Cc1ccc(-c2ccncc2)cc1)C(=O)C=Cc1ccc(C(F)(F)F)cc1` (racemic) [Example 283] reads 324 nM.
As to `COCCN(C)C(=O)[C@H](Cc1ccccc1)N(Cc1ccc(N2CCN(C(C)=O)CC2)cc1)C(=O)C=Cc1ccc(C)nc1` [Example 112, (S)-N-[4-(4-Acetyl-piperazin-1-yl)-benzyl]-N-{1-[(2-methoxy-ethyl)-methyl-carbamoyl]-2-phenyl-ethyl}-3-(6-methyl-pyridin-3-yl)-acrylamide], the IC50 is 153 nM.
Regarding `CN(Cc1ccc(N2CCCC2=O)cc1)C(=O)[C@H](Cc1ccccc1)N(Cc1ccc(N2CCOCC2)cc1)C(=O)C=Cc1ccc(C(F)(F)F)nc1` [Example 272], the IC50 was found to be 80 nM.
The result for `CC(=O)N1CCN(c2ccc(CN(C(=O)C=Cc3ccc(C(F)(F)F)cc3)[C@@H](Cc3ccccc3)C(=O)N(C)CCOCc3ccccc3)cc2)CC1` [Example 181, (S)-N-[4-(4-Acetyl-piperazin-1-yl)-benzyl]-N-{1-[(2-benzyloxy-ethyl)-methyl-carbamoyl]-2-phenyl-ethyl}-3-(4-trifluoromethyl-phenyl)-acrylamide] reads 10 nM; that for `COCCN(C)C(=O)[C@H](Cc1ccccc1)N(Cc1ccc(-c2ccccn2)cc1)C(=O)C=Cc1ccc(Cl)nc1` [Example 85, (S)-3-(6-Chloro-pyridin-3-yl)-N-{1-[(2-methoxy-ethyl)-methyl-carbamoyl]-2-phenyl-ethyl}-N-(4-pyridin-2-yl-benzyl)-acrylamide], 31 nM; that for `Cc1nc(C)c(C=CC(=O)N(Cc2ccc(N3CCOCC3)cc2)[C@@H](Cc2ccccc2)C(=O)N2CCC(N(C)C)CC2)s1` [Example 2, (S)-N-[1-Benzyl-2-(4-dimethylamino-piperidin-1-yl)-2-oxo-ethyl]-3-(2,4-dimethyl-thiazol-5-yl)-N-(4-morpholin-4-yl-benzyl)-acrylamide], 466 nM.
For `CN(C)C1CCN(C(=O)[C@H](Cc2ccccc2)N(Cc2ccc(-c3ccccn3)cc2)C(=O)C=Cc2ccc(C(F)(F)F)cc2)CC1` [Example 6, (S)-N-[1-Benzyl-2-(4-dimethylamino-piperidin-1-yl)-2-oxo-ethyl]-N-(4-pyridin-2-yl-benzyl)-3-(4-trifluoromethyl-phenyl)-acrylamide], the IC50 was determined as 54 nM.
On to `CN(C)C1CCN(C(=O)[C@H](Cc2ccccc2)N(Cc2ccc(-c3ccccn3)cc2)C(=O)C=Cc2ccc(C(F)(F)F)cn2)CC1` [Example 17, (S)-N-[1-Benzyl-2-(4-dimethylamino-piperidin-1-yl)-2-oxo-ethyl]-N-(4-pyridin-2-yl-benzyl)-3-(5-trifluoromethyl-pyridin-2-yl)-acrylamide], for which the IC50 worked out at 113 nM.
For the compound `COCCN(C)C(=O)[C@H](Cc1ccccc1)N(Cc1ccc(N2CCOCC2)cc1)C(=O)C=Cc1ccc(C)cn1` [Example 68, (S)-N-{1-[(2-Methoxy-ethyl)-methyl-carbamoyl]-2-phenyl-ethyl}-3-(5-methyl-pyridin-2-yl)-N-(4-morpholin-4-yl-benzyl)-acrylamide], the half-maximal inhibitory concentration (IC50) is 156 nM.
For `CN(C)C1CCN(C(=O)[C@H](Cc2ccccc2)N(Cc2ccc(-c3ccccn3)cc2)C(=O)C=Cc2ccc(Cl)nc2)CC1` [Example 14, (S)-N-[1-Benzyl-2-(4-dimethylamino-piperidin-1-yl)-2-oxo-ethyl]-3-(6-chloro-pyridin-3-yl)-N-(4-pyridin-2-yl-benzyl)-acrylamide], the IC50 was determined as 226 nM.
Take `COc1cccc(COCCN(C)C(=O)[C@H](Cc2ccccc2)N(Cc2ccc(N3CCN(C(C)=O)CC3)cc2)C(=O)C=Cc2ccc(C(F)(F)F)cc2)c1` [Example 187, (S)-N-[4-(4-Acetyl-piperazin-1-yl)-benzyl]-N-(1-{[2-(3-methoxy-benzyloxy)-ethyl]-methyl-carbamoyl}-2-phenyl-ethyl)-3-(4-trifluoromethyl-phenyl)-acrylamide, formic acid]: the IC50 came out at 7 nM.
Turning to `COCCN(C)C(=O)[C@H](Cc1ccccc1)N(Cc1ccc(N2CCN(C(C)=O)CC2)cc1)C(=O)C=Cc1ccc(Cl)nc1` [Example 113, (S)-N-[4-(4-Acetyl-piperazin-1-yl)-benzyl]-3-(6-chloro-pyridin-3-yl)-N-{1-[(2-methoxy-ethyl)-methyl-carbamoyl]-2-phenyl-ethyl}-acrylamide], the IC50 amounted to 84 nM.
Consider `Cc1nn(C)c(C)c1C=CC(=O)N(Cc1ccc(-c2ccncc2)cc1)[C@@H](Cc1ccccc1)C(=O)N1CCC(N(C)C)CC1` [Example 21, (S)-N-[1-Benzyl-2-(4-dimethylamino-piperidin-1-yl)-2-oxo-ethyl]-N-(4-pyridin-4-yl-benzyl)-3-(1,3,5-trimethyl-1H-pyrazol-4-yl)-acrylamide], for which the IC50 came to 14 nM.
The result for `Cc1nn(C)c(C)c1C=CC(=O)N(Cc1ccc(N2CCOCC2)cc1)[C@@H](Cc1ccccc1)C(=O)N1CCC(N(C)C)CC1` [Example 1, (S)-N-[1-Benzyl-2-(4-dimethylamino-piperidin-1-yl)-2-oxo-ethyl]-N-(4-morpholin-4-yl-benzyl)-3-(1,3,5-trimethyl-1H-pyrazol-4-yl)-acrylamide] reads 211 nM; that for `COCCN(C)C(=O)[C@H](Cc1ccccc1)N(Cc1ccc(-c2cncnc2)cc1)C(=O)C=Cc1c(C)noc1C` [Example 124, (S)-3-(3,5-Dimethyl-isoxazol-4-yl)-N-{1-[(2-methoxy-ethyl)-methyl-carbamoyl]-2-phenyl-ethyl}-N-(4-pyrimidin-5-yl-benzyl)-acrylamide], 110 nM.
